Structures can show the parent of a compound that is named as a salt.
Test system: 5-HT4 receptor
Assay: Guinea pig colon 5-HT4 receptor antagonist activity (longitudinal muscle-myenteric plexus, 5-HT-evoked contraction)
Type: cell-based
Settings: guinea-pig distal colon longitudinal muscle-myenteric plexus; contraction evoked by 5-HT
Description: 5-HT4 RECEPTOR ANTAGONIST ACTIVITY
Male guinea-pigs, weighing 250-400 g are used. Longitudinal muscle-myenteric plexus preparations, approximately 3 cm long, are obtained from the distal colon region. These are suspended under a 0.5 g load in isolated tissue baths containing Krebs solution bubbled with 5% CO2 in O2 and maintained at 37° C. In all experiments, the Krebs solution also contains methiothepin 10^-7 M and granisetron 10^-6 M to block effects at 5-HT1, 5-HT2 and 5-HT3 receptors.
After construction of a simple concentration-response curve with 5-HT, using 30s contact times and a 15 min dosing cycle, a concentration of 5-HT is selected so as to obtain a contraction of the muscle approximately 40-70% maximum(10^-9 M approx). The tissue is then alternately dosed every 15 min with this concentration of 5-HT and then with an approximately equi-effective concentration of the nicotine receptor stimulant, dimethylphenylpiperazinium (DMPP). After obtaining consistent responses to both 5-HT and DMPP, increasing concentrations of a putative 5-HT4 receptor antagonist are then added to the bathing solution. The effects of this compound are then determined as a percentage reduction of the contractions evoked by 5-HT or by DMPP. […] A compound which reduces the response to 5-HT but not to DMPP is believed to act as a 5-HT4 receptor antagonist.

In the case of `CCCCN1CCC(COC(=O)c2cccc3cccnc23)CC1` [Example 1-2, (1-Butyl-4-piperidinylmethyl)quinolinyl-8-carboxylate hydrochloride], the “5-HT4 receptor antagonist activity (in words)” value is reported as “particularly good activity”.
